Data published in US6706267B1, “Glucosamine and egg for reducing inflammation” (Arkion Life Sciences LLC, priority 1999, dated 2004).
Marks after values point to notes of the source that are not given here.

Experiments:
Type in all cases: in vivo
plasma fibrinogen = assay: Rat established adjuvant arthritis model: plasma fibrinogen levels
Excerpt: (§1) To assess the synergistic antiarthritic effect of Glucosamine hydrochloride and the DCV hyperimmune egg in the established rat adjuvant arthritis, a chronic animal model of inflammation.

[1] = tested on: established rat adjuvant arthritis; assay: Rat established adjuvant arthritis model: paw edema; settings: for % Chg (paw edema vs Control Adjuvant) / Day 14-Mean Paw Edema (ml ± SE) / Day 22-Mean Paw Edema (ml ± SE) / Day 30-Mean Paw Edema (ml ± SE): oral, rat
Excerpt: as §1

[2] = tested on: established rat adjuvant arthritis; assay: Rat adjuvant arthritis model: histomorphologic observations, tibiotarsal joint; parameters: scale not given here; settings: for Ankylosis (score) / Erosion, Cartliage (score) / Hyperostosis (score) / Inflammation, periarticular (score) / Osteolysis (score) / Pannus, Cartliage (score): Tibiotarsal Joint (H&E); for Erosion, Cartilage (score): Tibiotarsal Joint (PAS)
Excerpt: as §1

Compound | % Δ from ctrl (plasma fibrinogen) (plasma fibrinogen; Day 23, oral) [%] | Mean Plasma Fibrinogen Levels (mg/dl ± SE) (plasma fibrinogen; Day 23, oral) [mg/dL] | % Δ from ctrl (plasma fibrinogen) (plasma fibrinogen; Day 30, oral) | Mean Plasma Fibrinogen Levels (mg/dl ± SE) (plasma fibrinogen; Day 30, oral) [mg/dL] | % Chg (paw edema vs Control Adjuvant) ([1]; Day 14) [%] | Day 14-Mean Paw Edema (ml ± SE) ([1]; Day 14) | % Chg (paw edema vs Control Adjuvant) ([1]; Day 22) [%] | Day 22-Mean Paw Edema (ml ± SE) ([1]; Day 22) | % Chg (paw edema vs Control Adjuvant) ([1]; Day 30) | Day 30-Mean Paw Edema (ml ± SE) ([1]; Day 30) | Ankylosis (score) ([2]; Day 22) | Erosion, Cartliage (score) ([2]; Day 22) | Hyperostosis (score) ([2]; Day 22) | Inflammation, periarticular (score) ([2]; Day 22) | Osteolysis (score) ([2]; Day 22) | Pannus, Cartliage (score) ([2]; Day 22) | Ankylosis (score) ([2]; Day 30) | Erosion, Cartliage (score) ([2]; Day 30) | Hyperostosis (score) ([2]; Day 30) | Inflammation, periarticular (score) ([2]; Day 30) | further results
COc1ccc2c(c1)c(CC(=O)O)c(C)n2C(=O)c1ccc(Cl)cc1 [Indo, Indomethacin] | −28 | 617 ± 72 | −46* % | 366 ± 48 | −8 | 1.2 ± 0.4, n = 6 ml | −37 | 1.2 ± 0.1, n = 6 ml | −86* % | 0.3 ± 0.1, n = 5 ml | 1.5/1.5 | 1.5 | 3.0 | 3.5/3.5 | 2.5 | 1.5 | 1.5/1.5 | 2.5 | 2.0 | 3.5/3.5 | percent inhibition of fibrinogen levels (plasma fibrinogen; day 30): 46%; Osteolysis (score) ([2]; Day 30): 1.0; Pannus, Cartliage (score) ([2]; Day 30): 2.5; Erosion, Cartilage (score) ([2]; Day 22): 1.5; Erosion, Cartilage (score) ([2]; Day 30): 2.5
Cl.N[C@H]1C(O)O[C@H](CO)[C@@H](O)[C@@H]1O (some centres unmarked) [GLU-250, Glucosamine hydrochloride] | −2 | 803 ± 39 | −28% | 487 ± 112 | −15 | 1.1 ± 0.3, n = 7 ml | −16 | 1.6 ± 0.3, n = 7 ml | +48* % | 3.1 ± 0.2, n = 5 ml | 3.5 | 2.0 | 3.0 | 3.5 | 1.5 | 2.0 | 4.0 | 4.0 | 3.5 | 4.0 | % Δ from ctrl (plasma fibrinogen) (plasma fibrinogen; Day 16, oral): +18%; Mean Plasma Fibrinogen Levels (mg/dl ± SE) (plasma fibrinogen; Day 16, oral): 735 ± 44 mg/dL; effect on paw edema, in words ([1]; day 30, severe polyarthritis): ineffectiveness; effect on paw edema, in words ([1]; days 14 and 22): inhibitory effect; Osteolysis (score) ([2]; Day 30): 3.5; Pannus, Cartliage (score) ([2]; Day 30): 4.0; Erosion, Cartilage (score) ([2]; Day 22): 2.0; Erosion, Cartilage (score) ([2]; Day 30): 4.0
